# Data from patent publication US10927123B2, “Modulators of the beta-3 adrenergic receptor useful for the treatment or prevention of disorders related thereto” (Arena Pharmaceuticals, Inc., priority 2016, dated 2021).
# Biological target: Beta-3 Adrenergic Receptor (Homo sapiens (Human), UniProt P13945)
# Assay: HTRF cAMP antagonist assay (IC50 determination)
# Assay type: cell-based
# Details: CHO-K1 cells stably expressing recombinant receptor; antagonism of isoproterenol at EC90; cAMP readout
# Procedure: HTRF cAMP assays were performed according to manufacturer's instructions (Cisbio, cAMP Dynamic 2 Assay Kit; #62AM4PEJ). CHO-K1 cells stably expressing recombinant receptor were harvested and suspended in warm PBS to make a 300,000 cells/mL stock. This cell suspension was dispensed into 384 well assay plates (PerkinElmer ProxiPlate #6008280) at 5 μL per well (1500 cells/well) along with a cAMP standard curve.
# Compounds were dissolved and serially diluted (5-fold) in DMSO to generate a 10-point dose response stock. The stock was then diluted 100-fold in assay buffer (PBS containing 1 mM IBMX) before a volume of 2.5 μL was added to the cells (the final, top concentration of compound in the dose-response is typically 10 or 100 μM). After a brief incubation, 2.5 μL of isoproterenol stock, prepared at a concentration 4 times its EC90 at the receptor of interest, was added to the wells. The EC90 for isoproterenol, a beta-adrenergic agonist, was determined in separate experiments using standard methods to measure agonist potencies.
# Following a 1-hour incubation at room temperature, 5 μL of cAMP-D2 Reagent diluted in Lysis Buffer was added to each well followed by 5 μL of Cryptate Reagent. Plates were further incubated at room temperature for 1 hour prior to reading. Time resolved fluorescence measurements were collected on a suitable, HTRF-capable plate reader.
# Counts from the plate reader were fit to the cAMP standard curve on the assay plate in order to determine cAMP concentrations in each well, and these values were used to construct dose-response curves to obtain IC50 values.
# Sequence of Beta-3 Adrenergic Receptor (P13945 whole entry, species assumed): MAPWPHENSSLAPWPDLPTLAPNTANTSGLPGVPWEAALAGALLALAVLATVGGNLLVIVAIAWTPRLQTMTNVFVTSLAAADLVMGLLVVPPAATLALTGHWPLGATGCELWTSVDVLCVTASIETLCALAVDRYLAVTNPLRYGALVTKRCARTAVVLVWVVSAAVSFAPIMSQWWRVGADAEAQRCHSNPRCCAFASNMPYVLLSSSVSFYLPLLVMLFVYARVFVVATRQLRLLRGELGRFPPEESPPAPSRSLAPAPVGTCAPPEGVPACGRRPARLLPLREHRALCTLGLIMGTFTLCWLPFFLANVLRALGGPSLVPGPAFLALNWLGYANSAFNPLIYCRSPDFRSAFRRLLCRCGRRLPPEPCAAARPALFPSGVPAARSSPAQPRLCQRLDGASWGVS
row,IC50,Structure (SMILES)
1,0.00445 µM,"CS(=O)(=O)c1cccc(OC[C@@H](O)CN[C@@H]2COC3(CCN(S(=O)(=O)c4ccc5ccccc5c4)CC3)C2)c1 [Compound 4, (S)-1-(3-(methylsulfonyl)phenoxy)-3-((S)-8-(naphthalen-2-ylsulfonyl)-1-oxa-8-azaspiro[4.5]decan-3-ylamino)propan-2-ol]"
2,0.0333 µM,"O=S(=O)(CCO)c1cccc(OC[C@@H](O)CNC2COC3(CCN(S(=O)(=O)c4ccc5ccccc5c4)CC3)C2)c1 (stereo partly drawn) [Compound 5, (2S)-1-(3-(2-hydroxyethylsulfonyl)phenoxy)-3-(8-(naphthalen-2-ylsulfonyl)-1-oxa-8-azaspiro[4.5]decan-3-ylamino)propan-2-ol]"
3,0.0165 µM,"CCCS(=O)(=O)c1cccc(OC[C@@H](O)CNC2COC3(CCN(S(=O)(=O)c4ccc5ccccc5c4)CC3)C2)c1 (stereo partly drawn) [Compound 6, (2S)-1-(8-(naphthalen-2-ylsulfonyl)-1-oxa-8-azaspiro[4.5]decan-3-ylamino)-3-(3-(propylsulfonyl)phenoxy)propan-2-ol]"
4,0.13 µM,"N#CCS(=O)(=O)c1cccc(OC[C@@H](O)CNC2COC3(CCN(S(=O)(=O)c4ccc5ccccc5c4)CC3)C2)c1 (stereo partly drawn) [Compound 12, 2-(3-((2S)-2-hydroxy-3-(8-(naphthalen-2-ylsulfonyl)-1-oxa-8-azaspiro[4.5]decan-3-ylamino)propoxy)phenylsulfonyl)acetonitrile]"

# More lines, now with the values behind:
row,Structure (SMILES),IC50
1,"CS(=O)(=O)c1cccc(OC[C@@H](O)CNC2COC3(CCN(S(=O)(=O)c4ccc5ccccc5c4)CC3)C2)c1 (stereo partly drawn) [Compound 1, (2S)-1-(3-(methylsulfonyl)phenoxy)-3-(8-(naphthalen-2-ylsulfonyl)-1-oxa-8-azaspiro[4.5]decan-3-ylamino)propan-2-ol]",0.00442 µM
2,"CS(=O)(=O)c1cccc(OC[C@H](O)CNC2COC3(CCN(S(=O)(=O)c4ccc5ccccc5c4)CC3)C2)c1 (stereo partly drawn) [Compound 2, (2R)-1-(3-(methylsulfonyl)phenoxy)-3-(8-(naphthalen-2-ylsulfonyl)-1-oxa-8-azaspiro[4.5]decan-3-ylamino)propan-2-ol]",0.0448 µM
3,"CS(=O)(=O)c1cccc(OC[C@@H](O)CN[C@H]2COC3(CCN(S(=O)(=O)c4ccc5ccccc5c4)CC3)C2)c1 [Compound 3, (S)-1-(3-(methylsulfonyl)phenoxy)-3-((R)-8-(naphthalen-2-ylsulfonyl)-1-oxa-8-azaspiro[4.5]decan-3-ylamino)propan-2-ol]",0.00547 µM
4,"O=S(=O)(CC1CC1)c1cccc(OC[C@@H](O)CNC2COC3(CCN(S(=O)(=O)c4ccc5ccccc5c4)CC3)C2)c1 (stereo partly drawn) [Compound 7, (2S)-1-(3-(cyclopropylmethylsulfonyl)phenoxy)-3-(8-(naphthalen-2-ylsulfonyl)-1-oxa-8-azaspiro[4.5]decan-3-ylamino)propan-2-ol]",0.0342 µM
5,"CC(C)S(=O)(=O)c1cccc(OC[C@@H](O)CNC2COC3(CCN(S(=O)(=O)c4ccc5ccccc5c4)CC3)C2)c1 (stereo partly drawn) [Compound 8, (2S)-1-(3-(isopropylsulfonyl)phenoxy)-3-(8-(naphthalen-2-ylsulfonyl)-1-oxa-8-azaspiro[4.5]decan-3-ylamino)propan-2-ol]",0.0121 µM
6,"O=S(=O)(CCC(F)(F)F)c1cccc(OC[C@@H](O)CNC2COC3(CCN(S(=O)(=O)c4ccc5ccccc5c4)CC3)C2)c1 (stereo partly drawn) [Compound 9, (2S)-1-(8-(naphthalen-2-ylsulfonyl)-1-oxa-8-azaspiro[4.5]decan-3-ylamino)-3-(3-(3,3,3-trifluoropropylsulfonyl)phenoxy)propan-2-ol]",0.0243 µM
7,"CC(C)CS(=O)(=O)c1cccc(OC[C@@H](O)CNC2COC3(CCN(S(=O)(=O)c4ccc5ccccc5c4)CC3)C2)c1 (stereo partly drawn) [Compound 10, (2S)-1-(3-(isobutylsulfonyl)phenoxy)-3-(8-(naphthalen-2-ylsulfonyl)-1-oxa-8-azaspiro[4.5]decan-3-ylamino)propan-2-ol]",0.0251 µM
8,"CC(C)CCS(=O)(=O)c1cccc(OC[C@@H](O)CNC2COC3(CCN(S(=O)(=O)c4ccc5ccccc5c4)CC3)C2)c1 (stereo partly drawn) [Compound 11, (2S)-1-(3-(isopentylsulfonyl)phenoxy)-3-(8-(naphthalen-2-ylsulfonyl)-1-oxa-8-azaspiro[4.5]decan-3-ylamino)propan-2-ol]",0.0355 µM
